From patent US8940742B2, “Heterocyclic compounds and uses thereof” (Infinity Pharmaceuticals, Inc., priority 2012, dated 2015)

Tests used:
PI3K γ = molecular target: T1, PI3K γ (Homo sapiens, UniProt P48736); test: PI3-Kinase Promega ADP-Glo Max assay; assay type: biochemical; conditions: 40 nM kinase, 3 mM ATP, 500 uM diC8-PtdInsP
T1 construct: purchased Millipore
Procedure: Promega ADP-Glo Max assay kit (Cat. No. V7002) was utilized to determine IC50 values for α, β, δ and γ isoforms of human Class I PI3 kinases (Millipore). […] Reactions were incubated at room temperature for 2 hours followed by addition of 25 uL of stop solution. After a 40-minute incubation at room temperature, 50 uL of Promega detection mix was added followed by incubation for 1 hour at room temperature. Plates were then read on Envision plate reader in luminescence mode. Data was converted to % inhibition using the following equation below:
[formula] where S is the sample luminescence, Pos is a positive control without added PI3K, Neg is the negative control without added compound. Data was then plotted as % inhibition vs compound concentration.
(§1) Certain compounds provided herein were tested in PI3-Kinase Promega Assay using procedures as described above to determine IC50 values for α, β, δ and/or γ isoforms.

RAJI p110 δ = RAJI p110 δ (Homo sapiens, UniProt O00329); test: RAJI p110 δ cellular assay (phospho-AKT);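 further: potency based on lowered phosphorylated AKT in RAJI cells, as a readout of PI3K-δ dependent B-cell receptor signaling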
Sequence of RAJI p110 δ (O00329 whole entry): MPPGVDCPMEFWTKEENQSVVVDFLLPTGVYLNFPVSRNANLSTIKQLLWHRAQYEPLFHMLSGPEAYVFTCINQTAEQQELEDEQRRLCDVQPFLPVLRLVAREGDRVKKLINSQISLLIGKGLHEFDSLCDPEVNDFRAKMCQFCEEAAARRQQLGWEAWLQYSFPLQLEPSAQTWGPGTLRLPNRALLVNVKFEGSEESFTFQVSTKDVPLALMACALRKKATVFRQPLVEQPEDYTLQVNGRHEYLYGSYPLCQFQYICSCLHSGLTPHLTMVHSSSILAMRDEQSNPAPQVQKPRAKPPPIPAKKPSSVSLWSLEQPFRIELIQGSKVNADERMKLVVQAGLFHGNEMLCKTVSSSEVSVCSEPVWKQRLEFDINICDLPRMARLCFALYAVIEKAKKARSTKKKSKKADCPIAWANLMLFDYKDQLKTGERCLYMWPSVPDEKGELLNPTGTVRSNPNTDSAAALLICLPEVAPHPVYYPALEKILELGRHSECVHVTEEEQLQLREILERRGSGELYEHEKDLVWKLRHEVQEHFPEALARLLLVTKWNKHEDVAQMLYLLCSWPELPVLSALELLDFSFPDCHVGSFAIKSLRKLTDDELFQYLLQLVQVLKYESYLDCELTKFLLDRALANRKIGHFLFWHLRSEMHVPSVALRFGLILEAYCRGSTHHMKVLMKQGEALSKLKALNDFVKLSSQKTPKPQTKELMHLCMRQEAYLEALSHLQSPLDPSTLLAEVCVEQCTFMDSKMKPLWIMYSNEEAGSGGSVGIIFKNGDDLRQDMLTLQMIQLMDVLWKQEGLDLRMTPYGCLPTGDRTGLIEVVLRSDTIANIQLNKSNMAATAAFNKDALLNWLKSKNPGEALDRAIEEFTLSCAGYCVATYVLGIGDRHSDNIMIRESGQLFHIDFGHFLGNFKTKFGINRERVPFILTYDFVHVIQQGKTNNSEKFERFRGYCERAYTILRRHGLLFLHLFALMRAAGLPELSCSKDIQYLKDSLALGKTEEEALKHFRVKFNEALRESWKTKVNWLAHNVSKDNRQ
Sequence of RAJI p110 δ (P27986 whole entry partner): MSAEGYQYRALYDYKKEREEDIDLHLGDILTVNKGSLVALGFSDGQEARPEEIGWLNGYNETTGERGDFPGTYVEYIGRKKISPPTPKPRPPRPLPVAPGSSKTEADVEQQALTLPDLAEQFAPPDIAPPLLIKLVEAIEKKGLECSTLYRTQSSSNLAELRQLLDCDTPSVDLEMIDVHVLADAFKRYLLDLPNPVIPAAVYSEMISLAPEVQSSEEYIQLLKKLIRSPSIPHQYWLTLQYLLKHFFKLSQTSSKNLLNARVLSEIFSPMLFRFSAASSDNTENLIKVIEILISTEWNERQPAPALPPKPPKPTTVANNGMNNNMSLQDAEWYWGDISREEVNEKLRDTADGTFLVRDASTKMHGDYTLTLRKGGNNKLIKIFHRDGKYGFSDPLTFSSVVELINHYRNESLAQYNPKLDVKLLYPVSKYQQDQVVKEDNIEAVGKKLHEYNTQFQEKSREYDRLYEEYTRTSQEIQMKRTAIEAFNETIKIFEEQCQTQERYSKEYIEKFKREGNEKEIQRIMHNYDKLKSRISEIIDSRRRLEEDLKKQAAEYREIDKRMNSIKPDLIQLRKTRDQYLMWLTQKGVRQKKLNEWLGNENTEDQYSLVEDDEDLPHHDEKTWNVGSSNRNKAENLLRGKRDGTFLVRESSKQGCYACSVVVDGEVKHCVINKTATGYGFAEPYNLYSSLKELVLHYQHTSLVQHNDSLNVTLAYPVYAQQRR
Excerpt: (a) PI3K-δ Selective Assay
Reduction of phospho-AKT is indicative of compounds that may inhibit B-cell proliferation and function in certain diseases.

PI3K δ = molecular target: T2, PI3K δ (Homo sapiens, UniProt O00329); test: PI3-Kinase Promega ADP-Glo Max assay; assay type: biochemical; conditions: 20 nM kinase, 3 mM ATP, 500 uM diC8-PtdInsP
T2 construct: purchased Millipore
T2 sequence (O00329 whole entry): as the sequence (O00329 whole entry) above
T2 sequence (P27986 whole entry partner): as the sequence (P27986 whole entry partner) above
Procedure: (§2) Promega ADP-Glo Max assay kit (Cat. No. V7002) was utilized to determine IC50 values for α, β, δ and γ isoforms of human Class I PI3 kinases (Millipore). Samples of kinase (20 nM α or δ, 40 nM β or γ isoform) were incubated with compound for 15 minutes at room temperature in reaction buffer (15 mM HEPES pH 7.4, 20 mM NaCl, 1 mM EGTA, 0.02% Tween 20, 10 mM MgCl2, 0.2 mg/mL bovine-γ-globulins) followed by addition of ATP/diC8-PtdInsP mixture to give final concentrations of 3 mM ATP and 500 uM diC8-PtdInsP. Reactions were incubated at room temperature for 2 hours followed by addition of 25 uL of stop solution. After a 40-minute incubation at room temperature, 50 uL of Promega detection mix was added followed by incubation for 1 hour at room temperature. Plates were then read on Envision plate reader in luminescence mode. Data was converted to % inhibition using the following equation below:
(§3) [formula] where S is the sample luminescence, Pos is a positive control without added PI3K, Neg is the negative control without added compound. Data was then plotted as % inhibition vs compound concentration. Data fit to 4 parameter logistic equation to determine IC50 values: […]
as §1

PI3K α = molecular target: T3, PI3K α (Homo sapiens, UniProt P42336); test: PI3-Kinase Promega ADP-Glo Max assay; assay type: biochemical; conditions: 20 nM kinase, 3 mM ATP, 500 uM diC8-PtdInsP
T3 construct: purchased Millipore
T3 sequence (P42336 whole entry): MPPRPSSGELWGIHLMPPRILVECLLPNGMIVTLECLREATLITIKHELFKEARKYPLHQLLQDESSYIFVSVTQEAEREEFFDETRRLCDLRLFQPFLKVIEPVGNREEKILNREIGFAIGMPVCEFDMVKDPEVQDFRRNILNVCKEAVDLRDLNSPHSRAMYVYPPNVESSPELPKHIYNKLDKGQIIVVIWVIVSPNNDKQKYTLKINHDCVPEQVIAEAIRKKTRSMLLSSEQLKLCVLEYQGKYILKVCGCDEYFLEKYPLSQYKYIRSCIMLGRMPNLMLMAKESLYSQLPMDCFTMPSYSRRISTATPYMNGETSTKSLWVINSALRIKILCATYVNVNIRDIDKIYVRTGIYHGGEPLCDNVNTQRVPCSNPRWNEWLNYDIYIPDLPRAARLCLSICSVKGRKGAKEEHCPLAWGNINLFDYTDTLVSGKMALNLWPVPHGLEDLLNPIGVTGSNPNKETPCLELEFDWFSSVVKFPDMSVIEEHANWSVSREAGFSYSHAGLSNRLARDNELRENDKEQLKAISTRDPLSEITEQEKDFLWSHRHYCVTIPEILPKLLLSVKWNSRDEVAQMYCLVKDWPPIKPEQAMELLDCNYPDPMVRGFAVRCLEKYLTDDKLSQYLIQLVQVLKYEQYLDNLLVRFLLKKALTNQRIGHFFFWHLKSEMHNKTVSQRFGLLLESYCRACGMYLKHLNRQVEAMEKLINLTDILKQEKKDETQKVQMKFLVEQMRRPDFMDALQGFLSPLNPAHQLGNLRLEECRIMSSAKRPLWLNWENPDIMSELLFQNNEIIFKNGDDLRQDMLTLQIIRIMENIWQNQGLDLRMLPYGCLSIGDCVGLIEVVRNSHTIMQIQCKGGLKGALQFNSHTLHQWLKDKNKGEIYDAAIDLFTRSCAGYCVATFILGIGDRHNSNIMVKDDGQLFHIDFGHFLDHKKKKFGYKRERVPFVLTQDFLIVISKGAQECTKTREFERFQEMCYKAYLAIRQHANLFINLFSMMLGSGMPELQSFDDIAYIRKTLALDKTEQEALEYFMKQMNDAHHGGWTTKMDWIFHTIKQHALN
T3 sequence (P27986 whole entry partner): as the sequence (P27986 whole entry partner) above
Procedure: as §2, §3, §1

PI3K β = molecular target: T4, PI3K β (Homo sapiens, UniProt P42338); test: PI3-Kinase Promega ADP-Glo Max assay; assay type: biochemical; conditions: 40 nM kinase, 3 mM ATP, 500 uM diC8-PtdInsP
T4 construct: purchased Millipore
Procedure: as §2, §3, §1

Raw264.7 p110 γ = molecular target: T5, Raw264.7 p110 γ (Mus musculus, UniProt Q9JHG7); test: Raw264.7 p110 γ cellular assay (phospho-AKT); assay type: cell-based; conditions: serum-starved RAW264.7 cells stimulated with C5a
T5 construct: reduction of phospho-AKT in stimulated RAW 264.7 cells; endogenous in cells; host or cells: RAW264.7 macrophages
T5 sequence (Q9JHG7 whole entry): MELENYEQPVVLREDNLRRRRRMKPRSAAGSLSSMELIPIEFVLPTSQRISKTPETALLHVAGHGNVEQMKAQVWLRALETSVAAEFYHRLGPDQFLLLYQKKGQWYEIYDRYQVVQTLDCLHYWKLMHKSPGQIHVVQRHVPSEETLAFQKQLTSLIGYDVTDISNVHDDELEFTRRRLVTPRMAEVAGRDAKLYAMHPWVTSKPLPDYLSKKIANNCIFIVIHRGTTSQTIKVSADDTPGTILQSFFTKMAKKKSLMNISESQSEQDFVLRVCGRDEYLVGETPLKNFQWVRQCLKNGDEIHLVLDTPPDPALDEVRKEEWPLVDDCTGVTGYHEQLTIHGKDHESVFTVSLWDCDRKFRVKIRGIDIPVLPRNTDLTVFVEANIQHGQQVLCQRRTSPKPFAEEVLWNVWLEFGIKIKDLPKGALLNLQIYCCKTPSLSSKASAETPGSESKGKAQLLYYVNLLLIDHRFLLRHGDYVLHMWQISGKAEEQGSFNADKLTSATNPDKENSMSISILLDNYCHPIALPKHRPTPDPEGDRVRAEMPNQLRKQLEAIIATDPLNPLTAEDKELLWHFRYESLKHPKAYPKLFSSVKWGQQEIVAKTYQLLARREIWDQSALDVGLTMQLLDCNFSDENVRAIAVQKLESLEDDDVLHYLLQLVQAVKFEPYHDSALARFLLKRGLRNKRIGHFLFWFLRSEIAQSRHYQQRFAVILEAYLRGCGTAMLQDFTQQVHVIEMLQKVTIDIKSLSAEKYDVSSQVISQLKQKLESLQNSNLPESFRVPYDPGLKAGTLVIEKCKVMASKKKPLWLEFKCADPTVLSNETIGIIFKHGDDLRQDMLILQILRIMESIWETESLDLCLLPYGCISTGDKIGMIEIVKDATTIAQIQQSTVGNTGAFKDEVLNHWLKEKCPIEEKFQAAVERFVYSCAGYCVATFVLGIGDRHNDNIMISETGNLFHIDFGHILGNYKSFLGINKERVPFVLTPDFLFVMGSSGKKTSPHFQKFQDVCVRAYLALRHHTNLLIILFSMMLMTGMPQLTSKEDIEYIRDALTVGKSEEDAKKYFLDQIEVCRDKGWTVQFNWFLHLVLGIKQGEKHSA
Excerpt: (b) PI3K-γ Selective Assay
Briefly, serum-starved PAW264.7 cells are stimulated with a known GPCR agonist C5a. […] Cells can be treated with test compounds prior to, simultaneously with, or subsequent to the stimulation by C5a. RAW 264.7 cells respond to the complement component fragment C5a through activation of the C5a receptor, and the C5a receptor activates macrophages and induces cell migration.

Row | Compound | IC50 (PI3K γ) [µM] | IC50 (RAJI p110 δ) [µM] | IC50 (PI3K δ) [µM] | IC50 (PI3K α) [µM] | IC50 (PI3K β) [µM] | IC50 (Raw264.7 p110 γ) [µM]
1 | CNS(=O)(=O)c1cccc(-c2cnc(N)c(C(=O)N[C@@H](C)c3cc4cccc(Cl)c4c(=O)n3-c3ccccc3)n2)c1 [Compound 83] | 0.1 to 1 | < 0.1 | 1 to 10 | 1 to 10 | 0.1 to 1 | < 0.1
2 | C[C@H](NC(=O)c1nc(-c2cccc(NS(C)(=O)=O)c2)cnc1N)c1cc2cccc(Cl)c2c(=O)n1-c1ccccc1 [Compound 85] | < 0.1 | < 0.1 | 1 to 10 | 1 to 10 | 0.1 to 1 | < 0.1
3 | C[C@H](NC(=O)c1nc(-c2cccc(S(=O)(=O)NC(C)(C)C)c2)cnc1N)c1cc2cccc(Cl)c2c(=O)n1-c1ccccc1 [Compound 86] | 0.1 to 1 | < 0.1 | 1 to 10 | 1 to 10 | 1 to 10 | < 0.1
4 | CC(C)Oc1ccc(-c2cnc(N)c(C(=O)N[C@@H](C)c3cc4cccc(Cl)c4c(=O)n3-c3ccccc3)n2)cc1F [Compound 87] | 0.1 to 1 | 1 to 10 | 1 to 10 | 1 to 10 | > 10 | 0.1 to 1
5 | CC(C)Oc1ccc(-c2cnc(N)c(C(=O)N[C@@H](C)c3cc4cccc(Cl)c4c(=O)n3-c3ccccc3)n2)cc1Cl [Compound 88] | 1 to 10 | > 10 | > 10 | > 10 | > 10 | 1 to 10
6 | Cc1cnc(N)c(C(=O)N[C@@H](C)c2cc3cccc(Cl)c3c(=O)n2-c2ccccc2)n1 [Compound 89] | 1 to 10 | 0.1 to 1 | 1 to 10 | > 10 | 1 to 10 | 0.1 to 1
7 | C[C@H](NC(=O)c1nc(-c2ccc(S(C)(=O)=O)cc2)cnc1N)c1cc2cccc(Cl)c2c(=O)n1-c1ccccc1 [Compound 90] | 1 to 10 | 1 to 10 | > 10 | > 10 | > 10 | 0.1 to 1
8 | C[C@H](NC(=O)c1nc(-c2cccc(S(=O)(=O)N(C)C)c2)cnc1N)c1cc2cccc(Cl)c2c(=O)n1-c1ccccc1 [Compound 91] | 1 to 10 | 0.1 to 1 | 1 to 10 | > 10 | 1 to 10 | 0.1 to 1
9 | C[C@H](NC(=O)c1nc(-c2cccc(S(=O)(=O)N3CCCC3)c2)cnc1N)c1cc2cccc(Cl)c2c(=O)n1-c1ccccc1 [Compound 92] | 1 to 10 | 1 to 10 | 1 to 10 | > 10 | 1 to 10 | 1 to 10
10 | COc1ccc(-c2cnc(N)c(C(=O)N[C@@H](C)c3cc4cccc(Cl)c4c(=O)n3-c3ccccc3)n2)cc1OC [Compound 93] | 0.1 to 1 | 0.1 to 1 | 1 to 10 | 1 to 10 | 1 to 10 | < 0.1
11 | C[C@H](NC(=O)c1nc(-c2cccc(S(=O)(=O)NC3CC3)c2)cnc1N)c1cc2cccc(Cl)c2c(=O)n1-c1ccccc1 [Compound 96] | 1 to 10 | < 0.1 | 1 to 10 | > 10 | 1 to 10 | < 0.1
12 | CC(C)NS(=O)(=O)c1cccc(-c2cnc(N)c(C(=O)N[C@@H](C)c3cc4cccc(Cl)c4c(=O)n3-c3ccccc3)n2)c1 [Compound 97] | 0.1 to 1 | < 0.1 | 1 to 10 | 1 to 10 | 0.1 to 1 | < 0.1
13 | CC(C)Oc1ccc(-c2cnc(N)c(C(=O)N[C@@H](C)c3cc4cccc(Cl)c4c(=O)n3-c3ccccc3)n2)cn1 [Compound 98] | 1 to 10 | 0.1 to 1 | 1 to 10 | > 10 | > 10 | 0.1 to 1
14 | C[C@H](NC(=O)c1nc(-c2cccc(NS(=O)(=O)N(C)C)c2)cnc1N)c1cc2cccc(Cl)c2c(=O)n1-c1ccccc1 [Compound 99] | < 0.1 | < 0.1 | 0.1 to 1 | 1 to 10 | 0.1 to 1 | < 0.1
15 | COc1ccc(-c2cnc(N)c(C(=O)N[C@@H](C)c3cc4cccc(Cl)c4c(=O)n3-c3ccccc3)n2)cc1NS(C)(=O)=O [Compound 101] | < 0.1 | < 0.1 | 1 to 10 | 0.1 to 1 | 0.1 to 1 | < 0.1
16 | C[C@H](NC(=O)c1nc(-c2cccc(NS(=O)(=O)C3CC3)c2)cnc1N)c1cc2cccc(Cl)c2c(=O)n1-c1ccccc1 [Compound 102] | < 0.1 | < 0.1 | 1 to 10 | 1 to 10 | 0.1 to 1 | < 0.1
17 | C[C@H](NC(=O)c1nc(-c2ccc(NS(C)(=O)=O)cc2)cnc1N)c1cc2cccc(Cl)c2c(=O)n1-c1ccccc1 [Compound 103] | 1 to 10 | 1 to 10 | > 10 | > 10 | > 10 | 0.1 to 1
18 | C[C@H](NC(=O)c1nc(-c2cccc(O)c2)cnc1N)c1cc2cccc(Cl)c2c(=O)n1-c1ccccc1 [Compound 104] | 1 to 10 | 0.1 to 1 | > 10 | > 10 | 1 to 10 | 0.1 to 1
19 | CC(C)Oc1ccc(-c2cnc(N)c(C(=O)N[C@@H](C)c3cc4cccc(Cl)c4c(=O)n3-c3ccccc3)n2)cc1 [Compound 106] | 1 to 10 | > 10 | > 10 | > 10 | > 10 | 0.1 to 1
20 | C[C@H](NC(=O)c1nc(-c2cncc(NS(C)(=O)=O)c2)cnc1N)c1cc2cccc(Cl)c2c(=O)n1-c1ccccc1 [Compound 107] | < 0.1 | 0.1 to 1 | 0.1 to 1 | 0.1 to 1 | < 0.1 | < 0.1
21 | C[C@H](NC(=O)c1nc(-c2cccc(S(N)(=O)=O)c2)cnc1N)c1cc2cccc(Cl)c2c(=O)n1-c1ccccc1 [Compound 108] | 0.1 to 1 | 0.1 to 1 | 1 to 10 | 1 to 10 | 0.1 to 1 | < 0.1
22 | C[C@H](NC(=O)c1nc(-c2cnn(C)c2)cnc1N)c1cc2cccc(Cl)c2c(=O)n1-c1ccccc1 [Compound 109] | 1 to 10 | 0.1 to 1 | > 10 | 1 to 10 | 1 to 10 | < 0.1
23 | C[C@H](NC(=O)c1nc(-c2cn[nH]c2)cnc1N)c1cc2cccc(Cl)c2c(=O)n1-c1ccccc1 [Compound 110] | 0.1 to 1 | < 0.1 | 1 to 10 | 1 to 10 | 1 to 10 | < 0.1
24 | C[C@H](NC(=O)c1nc(C#N)cnc1N)c1cc2cccc(Cl)c2c(=O)n1-c1ccccc1 [Compound 111] | 0.1 to 1 | < 0.1 | 0.1 to 1 | > 10 | 0.1 to 1 | 0.1 to 1
25 | C[C@H](NC(=O)c1nc(-c2cscn2)cnc1N)c1cc2cccc(Cl)c2c(=O)n1-c1ccccc1 [Compound 112] | 0.1 to 1 | 0.1 to 1 | > 10 | 1 to 10 | 1 to 10 | < 0.1
26 | C[C@H](NC(=O)c1nc(-c2csc(S(C)(=O)=O)n2)cnc1N)c1cc2cccc(Cl)c2c(=O)n1-c1ccccc1 [Compound 113] | 1 to 10 | 1 to 10 | > 10 | > 10 | 1 to 10 | 0.1 to 1
27 | C[C@H](NC(=O)c1c(N)nn2cccnc12)c1cc2cccc(-c3ccccc3)c2c(=O)n1-c1ccccc1 [Compound 115] | 0.1 to 1 | 0.1 to 1 | 1 to 10 | 1 to 10 | > 10 | < 0.1
